Data taken from publication PMC5343914, “Phytochemical Analysis of Agrimonia pilosa Ledeb, Its Antioxidant Activity and Aldose Reductase Inhibitory Potential” (International Journal of Molecular Sciences, 2017).
Where two headings read alike, the source gives them in different places.

What was measured:
[1] = DPPH free radical scavenging capacity
Description: The stable free radical was used to determine the free radical-scavenging activity of the extracts. Briefly, a 0.32 mM solution of DPPH in MeOH was prepared, and 180 µL of this solution was mixed with 30 µL of each sample at concentrations of 0.05–1.0 mg/mL in DMSO. After 20 min of incubation in the darkroom, the decrease in the absorbance of the solution was measured at 570 nm on a microplate reader (EL800 Universal Microplate reader, Bio-Tek instruments, Winooski, VT, USA). DPPH inhibitory activity was expressed as the percentage inhibition (%) of DPPH in the aforementioned assay system, and was calculated as [1 − (Asample − Ablank/Acontrol − Ablank)] × 100%, where Acontrol is the absorbance of DPPH solution (180 µL) with methanol (30 µL); Ablank is the absorbance of distilled water (180 µL) with methanol (30 µL); Asample is the absorbance of DPPH solution (180 µL) with sample solution (30 µL).

[2] = target: T1, rat lens aldose reductase (RLAR) (Rattus norvegicus, UniProt P07943)
T1 construct: The supernatant was collected and used as the RLAR; from tissue; host or cells: Sprague–Dawley rat lens homogenate, 10,000 x g supernatant

[3] = target: T1, rat lens aldose reductase (RLAR); assay: Determination of RLAR inhibition in vitro (NADPH decrease at 340 nm, DL-glyceraldehyde substrate); assay type: biochemical; design: inhibition: dose or concentration left out as unconfirmed; settings: for IC50: Experiments; for inhibition: Table 2, printed under head DPPH/Experiments;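 for all read-outs here: crude enzyme from Sprague–Dawley rat lens homogenate supernatant, absorbance read over 3 min in pH 6.2 potassium phosphate buffer with 1.6 mM NADPH and 25 mM substrate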
Description: Crude RLAR was prepared as follows: lenses weighing 250–280 g were removed from Sprague–Dawley rats and frozen at −70 °C until use. […] Non-cataractous transparent lenses were pooled and a homogenate was prepared in 0.1 M phosphate-buffered saline (pH 6.2). RLAR homogenate was then centrifuged at 10,000× g for 20 min at 4 °C in a refrigerated centrifuge. The supernatant was collected and used as the RLAR. All procedures were carried out at 4 °C [37].
RLAR activity was assayed spectrophotometrically by measuring the decrease in the absorption of NADPH at 340 nm over a 3-min period using DL-glyceraldehyde as the substrate. Each 1.0 mL cuvette contained equal units of the enzyme, 0.10 M potassium phosphate buffer (pH 6.2), 1.6 mM NADPH, 25 mM DL-glyceraldehyde (the substrate), and an inhibitor or dimethyl sulfoxide (DMSO).

[4] = target: T2, recombinant human aldose reductase (RHAR) (Homo sapiens, UniProt P15121); assay: Determination of inhibition type of RHAR (Lineweaver-Burk plots); assay type: biochemical; settings: DL-glyceraldehyde 1.0 to 25.0 mM
T2 construct: purchased Wako Pure Chemical Industries (Osaka, Japan)
Description: Reaction mixtures consisted of 0.1 M potassium phosphate, 1.6 mM NADPH, and 2 mM of RHAR with varied concentrations of substrate DL-glyceraldehyde and AR inhibitor in a total volume of 600 μL. […] RHAR activity was assayed by measuring the decrease in absorption of NADPH after substrate addition at 340 nm using a Bio Tek Power Wave XS spectrophotometer (Bio Tek Instruments, Winooski, VT, USA) [41].

[5] = system: sorbitol accumulation in rat lenses; assay: Lens culture and intracellular sorbitol measurement (ex vivo); settings: compound 5.0 μg/mL; for Inhibition (%) of sorbitol accumulation in rat lens: isolated rat lens ex vivo; for Sorbitol Content (mg)/Lens Wet Weight (g): isolated rat lens, 30 mM glucose medium, 6 d
Description: Lenses isolated from 10-week-old Sprague–Dawley rats using the registration number mentioned in the section of 4.5 were cultured for 6 d in TC-199 medium that contained 15% fetal bovine serum, 100 units/mL penicillin, and 0.1 mg/mL streptomycin, under sterile conditions and an atmosphere of 5% CO2 and 95% air at 37 °C. Samples were dissolved in DMSO. The lenses were divided into three groups and cultured in medium containing 30 mM glucose and RLAR-active compounds. Each lens was placed in a well containing 2.0 mL of medium. Sorbitol was determined by HPLC using the methods mentioned in the section of 4.7 after its derivatization by reaction with benzoic acid to a fluorescent compound [42].

[6] = Offline DPPH HPLC assay of the n-BuOH fraction (peak area reduction); settings: n-BuOH fraction 20 mg/mL mixed with […] DPPH, 20 min, HPLC 254 nm
Description: The sample was analyzed using an Agilent Technologies modular model 1200 system with a vacuum degasser (G1322A), a quaternary pump (G1311A), an auto-sampler (G1329A), a thermo-statted column compartment (G1316A), and a variable wavelength detector (VWD, G1314D) system. The separation was achieved on an Eclipse XDB-phenyl column (150 mm × 4.6 mm, 3.5 μm) maintained at 30 °C. The elution solvents were 0.1% trifluoroacetic acid (A) and MeOH (B) with the following gradient: 20%–30% B (0–3 min), 30%–40% B (3–10 min), 40%–50% B (10–20 min), 50%–60% B […], 60%–100% B (25–35 min), 100%–100% B (35–38 min), 100%–20% B (38–40 min), and 20%–20% B (40–45 min). Injection volume was 10 µL (sample concentration: 1 mg/mL) and UV wavelength was 254 nm.
The offline DPPH HPLC assay was performed by modifying a previously-described protocol. Thirty microliters (20 mg/mL in MeOH) of the n-BuOH fraction from APE were mixed with 180 μL prepared DPPH solution (0.32 mM). The mixture was incubated in the dark for 20 min, then filtered through a 0.45-μm filter for HPLC analysis. The n-BuOH (20 mg/mL in MeOH) was used as a control. The extent of peak decrease is expressed as a quantitative reduction.

[7] = target: T2, recombinant human aldose reductase (RHAR); settings: cited from earlier work; for Inhibition type (References): Table 3; for inhibition pattern against RHAR: ref Lee et al., Ha et al., Chethan et al. 31, 32, 33
[8] = literature value; read-out: RLAR IC50 (References); cited from earlier work

Row | Structure (SMILES) | IC50 [1] [µM] | IC50 [2, 8] [µM] | IC50 [3] [µM] | inhibition [3] [%] | Inhibition (%) of sorbitol accumulation in rat lens [5] [%] | Sorbitol Content (mg)/Lens Wet Weight (g) [5] [mg/g] | other results
1 | O=c1c(O)c(-c2ccc(O)cc2)oc2cc(O)cc(O)c12 [Kaempferol (KP), kaempferol] | 91.6 ± 0.68 | 10 | 15.2 ± 1.32 | 11.8 ± 0.81 |  |  | 
2 | O=C(O)[C@H]1O[C@@H](Oc2cc(O)c3c(=O)cc(-c4ccc(O)c(O)c4)oc3c2)[C@H](O)[C@@H](O)[C@@H]1O [Luteolin-7-O-glucuronide (LGN), luteolin-7-O-glucuronide] | 80.6 ± 0.38 | 3.1 | 0.7 ± 0.54 | 83.3 ± 0.88 | 91.8 ± 9.01 | 0.12 ± 0.01 | Inhibition type [4]: Noncompetitive; peak area reduction (PAR) [6]: lower than 20.0%
3 | O=c1cc(-c2ccc(O)cc2)oc2c([C@@H]3O[C@H](CO)[C@@H](O)[C@H](O)[C@H]3O)c(O)cc(O)c12 [Vitexin (VT), vitexin] | > 250 | > 30 | > 30 | 12.2 ± 0.95 |  |  | DPPH free radical scavenging activity (in words) [1]: no DPPH free radical scavenging activity
4 | O=c1c(O[C@@H]2O[C@H](CO)[C@@H](O)[C@H](O)[C@H]2O)c(-c2ccc(O)c(O)c2)oc2cc(O)cc(O)c12 [Isoquercitrin (IQC), Isoquercitrin] | 65.9 ± 0.46 | 4.5 | 5.1 ± 0.88 | 41 ± 1.07 |  |  | 
5 | O=c1c(O)c(-c2ccc(O)c(O)c2)oc2cc(O)cc(O)c12 [Quercetin (QC), quercetin] | 70.4 ± 0.15 |  |  |  | 85.7 ± 8.32 | 0.21 ± 0.02 | Inhibition type (References) [7]: Noncompetitive [31]; inhibition pattern against RHAR [7]: noncompetitive; inhibition at 10 µg/mL [3]: 74.1 ± 0.85%
6 | O=C(O)CC1(CC(=O)O)CCCC1 [TMG, tetramethylene glutaric acid] |  | 1 | 0.5 ± 0.05 |  |  |  | Inhibition (%) RLAR ([3]; Table 1, concentration not in table, text b9: crude extract 10.0 μg/mL, EtOAc, n-BuOH fractions and TMG 1.0 μg/mL): 99.7 ± 0.11%
7 | O=C(OC1OC2COC(=O)c3cc(O)c(O)c(O)c3-c3c(cc(O)c(O)c3O)C(=O)OC2C2OC(=O)c3cc(O)c(O)c(O)c3-c3c(cc(O)c(O)c3O)C(=O)OC12)c1cc(O)c(O)c(Oc2c(C(=O)OC3OC4COC(=O)c5cc(O)c(O)c(O)c5-c5c(cc(O)c(O)c5O)C(=O)OC4C4OC(=O)c5cc(O)c(O)c(O)c5-c5c(cc(O)c(O)c5O)C(=O)OC34)cc(O)c(O)c2O)c1 (stereo not drawn) [Agrimoniin (AM), agrimoniin] | 13 ± 0.06 |  | 1.6 ± 0.12 |  | 47.6 ± 1.34 | 0.77 ± 0.02 | Inhibition type [4]: Noncompetitive
8 | O=c1cc(-c2ccc(O)cc2)oc2cc(O[C@@H]3O[C@H](CO)[C@@H](O)[C@H](O)[C@H]3O)cc(O)c12 [Apigenin-7-O-glucoside (AGC), apigenin-7-O-glucoside] | > 250 | 23 | 4.3 ± 0.14 | 40.2 ± 0.56 |  |  | DPPH free radical scavenging activity (in words) [1]: almost no DPPH free radical scavenging activity; peak area reduction (PAR) [6]: lower than 20.0%
9 | C[C@@H]1O[C@@H](OC[C@H]2O[C@@H](Oc3c(-c4ccc(O)c(O)c4)oc4cc(O)cc(O)c4c3=O)[C@H](O)[C@@H](O)[C@@H]2O)[C@H](O)[C@H](O)[C@H]1O [Rutin (RT), rutin] | 66.8 ± 0.34 |  | 9.5 ± 0.75 | 31.7 ± 0.65 |  |  | peak area reduction (PAR) [6]: lower than 20.0%
10 | O=C(O)[C@H]1O[C@@H](Oc2cc(O)c3c(=O)cc(-c4ccc(O)cc4)oc3c2)[C@H](O)[C@@H](O)[C@@H]1O [Apigenin-7-O-glucuronide (AGN), apigenin-7-O-glucuronide] | > 250 |  | > 30 | < 0 |  |  | DPPH free radical scavenging activity (in words) [1]: almost no DPPH free radical scavenging activity; RLAR inhibitory activity (in words) [3]: inactive; peak area reduction (PAR) [6]: lower than 20.0%
11 | O=c1cc(-c2ccc(O)c(O)c2)oc2cc(O)cc(O)c12 [Luteolin (LT), luteolin] | 88.2 ± 0.52 |  |  | 80.2 ± 0.9 | 91.8 ± 7.91 | 0.12 ± 0.01 | Inhibition type (References) [7]: Mixed type [30]; inhibition pattern against RHAR [7]: mixed-type
12 | O=c1cc(-c2ccc(O)c(O)c2)oc2cc(O[C@@H]3O[C@H](CO)[C@@H](O)[C@H](O)[C@H]3O)cc(O)c12 [Luteolin-7-O-glucoside (LGC), luteolin-7-O-glucoside] | 71.5 ± 0.29 | 7.5 | 8.1 ± 0.72 | 46.9 ± 0.95 |  |  | peak area reduction (PAR) [6]: lower than 20.0%
13 | O=c1cc(-c2ccc(O)cc2)oc2cc(O)cc(O)c12 [Apigenin (AG), apigenin] | 156.3 ± 1.21 |  | 3.2 ± 0.21 | 81.8 ± 1.2 |  |  | IC50 ([2]; read-out: RLAR IC50 (References); literature value; cited from earlier work): 2.2 µM
14 | O=c1c(O[C@@H]2O[C@H](CO)[C@H](O)[C@H](O)[C@H]2O)c(-c2ccc(O)c(O)c2)oc2cc(O)cc(O)c12 [Hyperin (HP), hyperin] | 73.3 ± 0.23 | 3 | 4.1 ± 0.32 | 90.8 ± 0.96 |  |  | 
15 | O=C1O[C@H]([C@@H](O)CO)C(O)=C1O [L-Ascorbic acid, L-ascorbic acid] | 147.3 ± 0.43 |  |  |  |  |  | Inhibition (%) DPPH ([1]; Table 1, concentration not in table, text b9: crude extract 7.1 μg/mL): 81.0 ± 0.01%
16 | O=c1c(O[C@@H]2O[C@H](CO)[C@@H](O)[C@H](O)[C@H]2O)c(-c2ccc(O)cc2)oc2cc(O)cc(O)c12 [Astragalin (AS), astragalin] | > 250 | > 30 | 5.1 ± 0.89 | 53.3 ± 1.14 |  |  | DPPH free radical scavenging activity (in words) [1]: no DPPH free radical scavenging activity
17 | Oc1cc(O)c2c(c1)OC(c1ccc(O)c(O)c1)C(O)C2 (stereo not drawn) [Catechin (CT), catechin] | 106.7 ± 0.43 | > 30 | > 30 | 7.2 ± 1.02 |  |  | 
18 | C[C@@H]1O[C@@H](Oc2c(-c3ccc(O)c(O)c3)oc3cc(O)cc(O)c3c2=O)[C@H](O)[C@H](O)[C@H]1O [Quercitrin (QU), quercitrin] | 77.9 ± 0.27 |  | 0.2 ± 0.02 |  | 76.9 ± 5.32 | 0.34 ± 0.02 | Inhibition type (References) [7]: Uncompetitive [29]; inhibition pattern against RHAR [7]: uncompetitive; inhibition at 10 µg/mL [3]: 97.4 ± 1.38%; RLAR potency relative to positive control TMG (times higher) ([3]; IC50 0.2 μM vs TMG 0.5 μM): 2.5 times
19 | C[C@@H]1O[C@@H](Oc2c(-c3ccc(O)cc3)oc3cc(O)cc(O)c3c2=O)[C@H](O)[C@H](O)[C@H]1O [Afzelin (AZ), afzelin] | > 250 |  |  |  | 93.2 ± 8.67 | 0.10 ± 0.01 | DPPH free radical scavenging activity (in words) [1]: no DPPH free radical scavenging activity
